Tested on: C57BL/6 mice
Assay: Cy5-mRNA biodistribution, ex vivo organ fluorescence after IV injection
Type: in vivo, mouse
Conditions: 0.5 mg/kg mRNA IV, 6 h
Experimental: FIG. 1B illustrates ex vivo fluorescence of Cy5-labelled mRNA in major organs extracted from C57BL/6 mice intravenously injected with example SORT LNPs (as described herein) that incorporate increasing percentages of different SORT molecules (0.5 mg/kg mRNA/body weight, 6 h).
FIG. 1C illustrates relative average Cy5 fluorescence measured in the liver, lung, and spleen as a function of SORT molecule percent inclusion (0.5 mg/kg mRNA/body weight, n=2). SORT molecules promote mRNA biodistribution to target organs. Data are shown as mean±s.e.m.
We first investigated the biodistribution of mRNA encapsulated in example SORT LNPs to determine whether there was a correlation between the organs in which the SORT LNPs accumulated and their tissue-specific mRNA activity. We formulated example liver, lung, and spleen SORT LNPs encapsulating Cy5-labelled mRNA following the identical protocols and formulation parameters used in our previous publications. We administered each LNP IV to C57BL/6 mice and tracked the in vivo biodistribution of the Cy5-mRNA using fluorescence imaging. Six hours post-injection, organs were excised and imaged ex vivo (FIG. 1B). The average fluorescence produced by the liver, spleen, and lungs was quantified (FIG. 1C). […] Importantly, these tracking studies quantify where the example SORT LNPs biodistribute but not where mRNA is translated to protein (functional delivery).

SORT molecule inclusion giving optimal liver biodistribution: 20%
Compound: CCCCCCCC/C=C\CCCCCCCC(=O)OCC(CN(C)C)OC(=O)CCCCCCC/C=C\CCCCCCCC (stereo not shown) [DODAP, 1,2-Dioleoyl-3-dimethylammonium-propane]

Source: patent US20260151350A1, “COMPOSITIONS AND METHODS FOR TARGETED DELIVERY TO CELLS” (The Board of Regents of The University of Texas System, priority 2021, published 2026)
